{
  "source": "patent US20220319656A1",
  "about": "“AUTOMATED LITERATURE META ANALYSIS USING HYPOTHESIS GENERATORS AND AUTOMATED SEARCH” (TECHNION RESEARCH & DEVELOPMENT FOUNDATION, priority 2019, published 2022)",
  "key": {"[1]": {"conditions": "from a short literature review; cited from earlier work"}, "MG63": {"test_system": "MG63", "assay": "Cell viability assay (MTT), in vitro screen, MG63 cells", "type": "cell-based, Human", "conditions": "72 h", "description": "Human osteosarcoma MG-63, U2OS cell lines were kind gift from David Meiri, and head and neck FaDu cell line were a kind gift of Moshe Elkabetz. These cells were incubated under standard conditions of 37° C., 5% CO2, and 95% humidity. MG-63 and U2OS cells were cultured in RPMI-1640 (Biological Industries) containing 10% fetal bovine serum, 2 mM L-Glutamine (Biological Industries) and 1% penicillin/streptomycin (Biological Industries).\n5000 cells per well in 0.2 ml growth media were seeded in a 96-well plate and allowed to attach for 24 hours. After 24 hours the cells were exposed to logarithmic gradient of drugs (Gemcitabine, Sorafenib, Nilotinib, Carfilzomib, Nintedanib, Trametinib, Cabozantinib, Ponatinib, Infigratinib, Duvelisib).\nCell survival for the cell lines was assayed after 3 days from adding the drugs. For the U20S and MG-63 by adding […] (5 mg/ml) in DDW to each well. After 3 hours, the solution was removed and 200 μl of DMSO was added. For the Fadu cell line by adding 30 μl of MTT solution (5 mg/ml) in DDW to each well. After 1 hour, the solution was removed and 100 μl of DMSO was added to dissolve the formazan crystals. Cell viability was evaluated by measuring the absorbance of each well using a Synergy H1 (BioTek) plate reader at 570 nm relative to control wells."}, "Fadu cells": {"test_system": "Fadu cells", "type": "cell-based", "conditions": "72 h", "description": "FaDu cell line were cultured in DMEM (Biological Industries) containing 10% fetal bovine serum, 2 mM L-Glutamine (Biological Industries) and 1% penicillin/streptomycin (Biological Industries). 5000 cells per well in 0.2 ml growth media were seeded in a 96-well plate and allowed to attach for 24 hours. After 24 hours the cells were exposed to logarithmic gradient of drugs (Gemcitabine, Sorafenib, Nilotinib, Carfilzomib, Nintedanib, Trametinib, Cabozantinib, Ponatinib, Infigratinib, Duvelisib). Cell survival for the cell lines was assayed after 3 days from adding the drugs. For the U20S and MG-63 by adding […] (5 mg/ml) in DDW to each well. After 3 hours, the solution was removed and 200 μl of DMSO was added. For the Fadu cell line by adding 30 μl of MTT solution (5 mg/ml) in DDW to each well. After 1 hour, the solution was removed and 100 μl of DMSO was added to dissolve the formazan crystals. Cell viability was evaluated by measuring the absorbance of each well using a Synergy H1 (BioTek) plate reader at 570 nm relative to control wells."}},
  "data": [
    {"smiles": "C=CC(=O)Nc1cc(Nc2nccc(-c3cn(C)c4ccccc34)n2)c(OC)cc1N(C)CCN(C)C", "note": "[osimertinib]", "values": [
      {"measurement": "effectiveness versus chemotherapy combination of pemetrexed and cisplatin", "setting": "[1]", "result": "more effective"}
    ]},
    {"smiles": "CC(C)C[C@H](NC(=O)[C@H](CCc1ccccc1)NC(=O)CN1CCOCC1)C(=O)N[C@@H](Cc1ccccc1)C(=O)N[C@@H](CC(C)C)C(=O)[C@@]1(C)CO1", "note": "[carfilzomib]", "values": [
      {"measurement": "potency / growth inhibition in the in-vitro screen", "setting": "MG63", "result": "most potent compound"},
      {"measurement": "sensitivity of cells to free drug and nanoparticle formulation", "setting": "MG63", "result": "extremely sensitive"},
      {"measurement": "cytotoxicity", "setting": "MG63; low nanomolar concentrations", "result": "more than 95%"},
      {"measurement": "potency in the in-vitro screen", "setting": "Fadu cells; Fadu cells, MTT", "result": "most potent molecule"},
      {"measurement": "sensitivity of cells to free drug and nanoparticle formulation", "setting": "Fadu cells; Fadu cells, MTT", "result": "less sensitive"},
      {"measurement": "cytotoxicity", "setting": "Fadu cells; human", "result": 64, "unit": "%"}
    ]}
  ]
}
